“And” between values parts separate entries of the source, which are not always exact repeats. Identical values can stand only once. Like-named read-outs stand apart in the source and are kept apart here.
Columns and labels:
[1] = molecular target: T1, cannabinoid receptor-1 (CB1), CB1R-containing cell membrane (Homo sapiens, UniProt P21554); test: biochemical; type: binding; details: for Ki: displacement of 3H-CP55940 on CB1 receptors, from serial dilutions, non-linear regression
T1 construct: purchased Applied Cell Sciences Inc, Rockville, Md
Protocol: Method A using cell membranes. A compound is dissolved in DMSO and diluted to 1 M as a stock solution. […] A CB1R-containing cell membrane (Applied Cell Sciences Inc, Rockville, Md.) is diluted with binding buffer to a protein concentration of 28 μg/ml.
(§1) The mixture is incubated for 90 min at room temperature, then filtered through Whatman glass fiber C disc filter in a vacuum manifold. The filter is washed three times each with 2.5 ml cold wash buffer (binding buffer with only 2.5 mg/ml BSA). The vacuum-dried filter is transferred to a scintillation vial, treated with 3 ml Eco-Scint, and the radioactivity is read on a Beckman LS6500 scintillation counter from which an IC50 value is calculated. The corresponding Ki values are obtained from serial dilutions according to this method, and calculated through the use of a non-linear regression program (Graphpad Inc, San Diego, Calif.).

[2] = molecular target: T2, hCB1 (membranes from hCB1 stably transfected CHO cells) (Homo sapiens, UniProt P21554); test: Cannabinoid Receptor-1 (CB1) Functional Activity Assay, Method A (35S-GTPγS, WIN 55212-2); type: biochemical; details: for antagonism of WIN 55212-2 at CB1 receptors: FIGS. 3b-3d; for antagonism at CB1 receptors: FIGS. 5a, 6a, 7a, no WIN 55212-2 named in the legend; for antagonism of 3 μM WIN 55212-2 at CB1 receptors: FIGS. 5b, 6b, 7b
T2 construct: purchased Perkin Elmer/NEN; host or cells: CHO cells, stably transfected
Protocol: (§2) Membranes are diluted in ice-cold assay buffer (10 mM HEPES, 100 mM NaCl, 10 mM MgCl2, 2 μM GDP, 0.2% FAF-BSA, 10 μg/mL saponin) to 38 μg membranes/mL. Dilute ^35S-GTPγ5 to 1 nM in assay buffer. […] These solutions are incubated for 30 minutes at 30° C. The filters are washed 6 times with 10 mM sodium phosphate buffer (pH 7.4) at ambient temperature. The filters are counted using a liquid scintillation counter on the ^35S channel. Each compound/concentration is run in triplicate. A positive antagonism control may be run for AM251 at the same concentrations as test compounds under the same conditions.

[3] = molecular target: T3, hCB2 (membranes from hCB2 stably transfected CHO cells) (Homo sapiens, UniProt P34972); test: Cannabinoid Receptor-2 (CB2) Functional Activity Assay, Method A (35S-GTPγS); type: biochemical; details: positive control, FIG. 9a
T3 construct: purchased Perkin Elmer/NEN; host or cells: CHO cells, stably transfected
Protocol: as §2, with “^35S-GTPγS” for “^35S-GTPγ5”, “is” for “may be”, “AM630” for “AM251”

[4] = molecular target: T4, cannabinoid receptor-2 (CB2), CB2R-containing cell membrane; hCB2 receptors (Homo sapiens, UniProt P34972); test: Cannabinoid Receptor-2 (CB2) Binding Assay, Method A using cell membranes (displacement of 3H-CP55940); details: for IC50: displacement of 3H-CP55940 (1 nM), CB2R-containing cell membrane; for Ki: displacement of 3H-CP55940, CB2R-containing cell membrane, from serial dilutions
T4 construct: purchased Applied Cell Sciences Inc, Rockville, Md
Protocol: Method A using cell membranes. A compound is dissolved in DMSO and diluted to 1 M as a stock solution. […] A CB2R-containing cell membrane (Applied Cell Sciences Inc, Rockville, Md.) is diluted with binding buffer to a protein concentration of 28 μg/ml.
as §1

[5] = molecular target: T4, cannabinoid receptor-2 (CB2), CB2R-containing cell membrane; hCB2 receptors; test: as above
[6] = displacement of 3H-CP55940 (1 nM) on CB1 receptors, read-out: IC50
[7] = FIG. 8, against pre-bound CP55940 on CHO cells expressing hCB2 receptors

T2 sequence (P21554 whole entry): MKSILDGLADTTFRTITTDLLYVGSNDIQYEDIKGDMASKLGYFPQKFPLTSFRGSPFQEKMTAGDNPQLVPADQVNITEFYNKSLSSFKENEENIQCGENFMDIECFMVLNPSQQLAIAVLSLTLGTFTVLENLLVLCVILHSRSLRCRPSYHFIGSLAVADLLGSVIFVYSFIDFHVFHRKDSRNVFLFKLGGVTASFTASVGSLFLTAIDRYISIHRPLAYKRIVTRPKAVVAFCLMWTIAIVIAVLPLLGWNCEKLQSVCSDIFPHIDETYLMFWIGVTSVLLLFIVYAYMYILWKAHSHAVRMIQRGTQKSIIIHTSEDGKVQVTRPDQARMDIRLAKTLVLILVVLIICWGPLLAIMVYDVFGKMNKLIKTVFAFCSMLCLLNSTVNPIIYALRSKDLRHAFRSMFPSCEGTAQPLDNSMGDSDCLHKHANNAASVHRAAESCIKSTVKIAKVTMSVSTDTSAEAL
T1 sequence (P21554 whole entry, species assumed): as the sequence (P21554 whole entry) above
T4 sequence (P34972 whole entry): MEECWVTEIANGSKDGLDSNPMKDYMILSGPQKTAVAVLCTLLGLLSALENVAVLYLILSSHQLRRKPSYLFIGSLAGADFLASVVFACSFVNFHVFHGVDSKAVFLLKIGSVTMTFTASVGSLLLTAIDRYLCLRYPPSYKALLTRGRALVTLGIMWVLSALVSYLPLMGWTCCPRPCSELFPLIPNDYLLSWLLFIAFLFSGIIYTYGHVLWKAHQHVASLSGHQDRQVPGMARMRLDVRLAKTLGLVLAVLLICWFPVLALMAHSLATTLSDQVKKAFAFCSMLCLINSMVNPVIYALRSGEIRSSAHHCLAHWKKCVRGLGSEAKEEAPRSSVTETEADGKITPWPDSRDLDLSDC
T3 sequence (P34972 whole entry): as above

With `CC(C)(C)C(=O)C(C(=O)OCc1ccccc1)N1C(=O)C(c2cccs2)C1C=Cc1ccccc1` (mixture of isomers) [Example 70C, Benzyl 2(RS)-tert-Butylcarbonyl-2-[3(S*)-2-thienyl)-4(R*)-(2-styryl)azetidin-2-on-1-yl]acetate] the IC50 [1, 6] was 1350 nM and 1400 nM, the Ki [1] was 676 nM and 670 nM and the “antagonism of WIN 55212-2 at CB1 receptors” value [2] was “antagonism”. The “antagonism at CB1 receptors” value [2] was “antagonism” and the “antagonism of 3 μM WIN 55212-2 at CB1 receptors” value [2] was “antagonism”.
In the case of `Cc1c(C(=O)NN2CCCCC2)nn(-c2ccc(Cl)cc2Cl)c1-c1ccc(I)cc1` [AM251, N-(piperidin-1-yl)-1-(2,4-dichlorophenyl)-5-(4-iodophenyl)-4-methyl-1H-pyrazole-3-carboxamide, reference compound], the “antagonism of WIN 55212-2 at CB1 receptors” value [2] is reported as “antagonism”.
`CCCCCCC(C)(C)c1ccc(C2CC(O)CCC2CCCO)c(O)c1` (stereo not drawn) [CP55940, 5-(1,1-dimethylheptyl)-2-[5-hydroxy-2-(3-hydroxypropyl)-cyclohexyl]-phenol] was tested, and the “agonism of CB2 receptors” value [3] was “agonism”.
With `CC(C)(C)OC(=O)CCC(C(=O)N1CCN(CCc2ccccc2)CC1)N1C(=O)C(N2C(=O)OCC2c2ccccc2)C1C=Cc1ccccc1` [Example 19E, 2(S)-(tert-Butoxycarbonylethyl)-2-[3(S)-(4(S)-phenyloxazolidin-2-on-3-yl)-4(R)-(2-styryl)azetidin-2-on-1-yl]acetic acid N-[4-(2-phenylethyl)]piperazinamide] the IC50 [4] was under 10000 nM.
`CC(C)(C)OC(=O)CC(C(=O)NCc1cccc(C(F)(F)F)c1)N1C(=O)C(N2C(=O)OCC2c2ccccc2)C1C=Cc1ccccc1` [Example 19F, 2(R)-(tert-Butoxycarbonylmethyl)-2-[3(S)-(4(S)-phenyloxazolidin-2-on-3-yl)-4(R)-(2-styryl)azetidin-2-on-1-yl]acetic acid N-(3-trifluoromethylbenzyl)amide] gave an IC50 [4] of under 1000 nM.
Work on `CC(C)(C)OC(=O)CCC(C(=O)NCc1cccc(C(F)(F)F)c1)N1C(=O)C(N2C(=O)OCC2c2ccccc2)C1C=Cc1ccccc1` [Example 19H, 2(R)-(tert-Butoxycarbonylethyl)-2-[3 (S)-(4(S)-phenyloxazolidin-2-on-3-yl)-4(R)-(2-styryl)azetidin-2-on-1-yl]acetic acid N-(3-trifluoromethylbenzyl)amide] yielded an IC50 [4] of under 1000 nM.
For `O=C(CC(C(=O)N1CCN(CCc2ccccc2)CC1)N1C(=O)C(N2C(=O)OCC2c2ccccc2)C1C=Cc1ccccc1)NCc1cccc(C(F)(F)F)c1` (stereo not drawn) [Example 28A], the IC50 [4] was under 10000 nM.
Work on `O=C(NCc1cccc(C(F)(F)F)c1)C(CC(=O)N1CCC(N2CCCCC2)CC1)N1C(=O)C(N2C(=O)OCC2c2ccccc2)C1C=Cc1ccccc1` (stereo not drawn) [Example 31A] yielded an IC50 [4] of 379 nM and a Ki [4] of 253 nM.
Work on `O=C(NCc1cccc(C(F)(F)F)c1F)C(CC(=O)N1CCC(N2CCCCC2)CC1)N1C(=O)C(N2C(=O)OCC2c2ccccc2)C1C=Cc1ccccc1` [Example 33G, 2(R)-[[4-(Piperidinyl)piperidinyl]carbonylmethyl]-2-[3 (S)-(4(S)-phenyloxazolidin-2-on-3-yl)-4(R)-(2-styryl)azetidin-2-on-1-yl]acetic acid N-(2-fluoro-3-trifluoromethylbenzyl)carboxamide] yielded an IC50 [5, 7] of 273 nM and a Ki [5, 7] of 182 nM.
For `O=C(CC[C@@H](C(=O)N1CCN(C2CCCCC2)CC1)N1C(=O)[C@@H](N2C(=O)OC[C@@H]2c2ccccc2)[C@H]1/C=C/c1ccccc1)NCc1cc(F)cc(C(F)(F)F)c1` [Example 37S], the IC50 [1, 6] was 2300 nM, the Ki [1] was 1150 nM and the “antagonism of WIN 55212-2 at CB1 receptors” value [2] was “antagonism”. The “antagonism at CB1 receptors” value [2] was “antagonism” and the “antagonism of 3 μM WIN 55212-2 at CB1 receptors” value [2] was “antagonism”.
With `O=C(CC[C@@H](C(=O)N1CCN(C2CCCCC2)CC1)N1C(=O)[C@@H](N2C(=O)OC[C@@H]2c2ccccc2)[C@H]1/C=C/c1ccccc1)NCc1ccc(Cl)c(C(F)(F)F)c1` [Example 37U] the IC50 [1, 6] was 2100 nM, the Ki [1] was 1070 nM and the “antagonism at CB1 receptors” value [2] was “antagonism”. The “antagonism of 3 μM WIN 55212-2 at CB1 receptors” value [2] was “antagonism”.
In the case of `O=C(NCc1ccc(Cl)c(C(F)(F)F)c1)[C@H](CCC(=O)N1CCN(C2CCCCC2)CC1)N1C(=O)[C@@H](N2C(=O)OC[C@@H]2c2ccccc2)[C@H]1/C=C/c1ccccc1` [Example 38J], the IC50 ([5]; quoted for the single-dose negative control of the CB2 functional assay, assay of the IC50 not stated) is reported as over 10000 nM.
`O=C(NC1(c2cccc(F)c2)CCCC1)C(CCC(=O)N1CCN(C2CCCCC2)CC1)N1C(=O)C(N2C(=O)OCC2c2ccccc2)C1C=Cc1ccccc1` (stereo not drawn) [Example 42H] was tested, and the IC50 [4] was about 10000 nM.
With `O=C(NC1(c2ccc(Cl)cc2)CC1)C(CCC(=O)N1CCN(C2CCCCC2)CC1)N1C(=O)C(N2C(=O)OCC2c2ccccc2)C1C=Cc1ccccc1` (stereo not drawn) [Example 42I] the IC50 [4] was about 10000 nM.
In the case of `O=C(NC1(c2ccc(Cl)cc2)CCCC1)C(CCC(=O)N1CCN(C2CCCCC2)CC1)N1C(=O)C(N2C(=O)OCC2c2ccccc2)C1C=Cc1ccccc1` (stereo not drawn) [Example 42J], the IC50 [4] is reported as about 10000 nM.
`Cc1ccc(C2(NC(=O)C(CCC(=O)N3CCN(C4CCCCC4)CC3)N3C(=O)C(N4C(=O)OCC4c4ccccc4)C3C=Cc3ccccc3)CC2)cc1` (stereo not drawn) [Example 42K] was tested, and the IC50 [4] was about 10000 nM.
For `Cc1ccc(C2(NC(=O)C(CCC(=O)N3CCN(C4CCCCC4)CC3)N3C(=O)C(N4C(=O)OCC4c4ccccc4)C3C=Cc3ccccc3)CCCC2)cc1` (stereo not drawn) [Example 42L], the IC50 [4] was about 10000 nM.
Molecule `COc1ccc(C2(NC(=O)C(CCC(=O)N3CCN(C4CCCCC4)CC3)N3C(=O)C(N4C(=O)OCC4c4ccccc4)C3C=Cc3ccccc3)CC2)cc1` (stereo not drawn) [Example 42M] has an IC50 [4] of about 10000 nM.
For `O=C(NCc1cccc(C(F)(F)F)c1)C(CCC(=O)N1CCN(CCc2ccccc2)CC1)N1C(=O)C(N2C(=O)OCC2c2ccccc2)C1C=Cc1ccccc1` (stereo not drawn) [Example 44B], the IC50 [4] was under 1000 nM.
In the case of `CCN1CCN(C(=O)CCC(C(=O)NCc2cccc(C(F)(F)F)c2)N2C(=O)C(N3C(=O)OCC3c3ccccc3)C2C(Br)=Cc2ccccc2)CC1` (stereo not drawn) [Example 45U], the IC50 [4] is reported as under 10000 nM.
`O=C(C(CCCc1ccccc1)N1C(=O)C(N2C(=O)OCC2c2ccccc2)C1C=Cc1ccccc1)N1CCN(C2CCCCC2)CC1` (stereo not drawn) [Example 62E] showed an IC50 [4] of 539 nM and a Ki [4] of 360 nM.
`O=C(CN1C(=O)C(c2cccs2)C1C=Cc1ccccc1)OCc1ccccc1` (stereo not drawn) [Example 70B, Benzyl 2-[3(S*)-2-Thienyl)-4(R*)-(2-styryl)azetidin-2-on-1-yl]acetate] was tested, and the IC50 ([1]; IC50, displacement of 3H-CP55940 (1 nM) on CB1 receptors) was under 10000 nM and the IC50 [4] was about 1000 nM.
`O=C(CC[C@@H](C(=O)N1CCN(CCc2cccs2)CC1)N1C(=O)[C@@H](N2C(=O)OC[C@@H]2c2ccccc2)[C@H]1/C=C/c1ccccc1)NCc1cc(F)cc(C(F)(F)F)c1` [Example 73G] was tested, and the IC50 [1, 6] was about 10000 nM.
Molecule `C[C@@H](NC(=O)[C@H](CCC(=O)N1CCN(C2CCCCC2)CC1)N1C(=O)[C@@H](N2C(=O)OC[C@@H]2c2cccc(Cl)c2)[C@H]1/C=C/c1ccccc1)c1ccccc1` [Example 73H] has an IC50 [1, 6] of about 10000 nM.
